Our source for the IC50 values is patent publication US7439253B2, “Heterocyclic compounds, their preparation and their use as medicaments, in particular as antibacterials and beta-lactamase inhibitors” (Novexel, priority 2002, dated 2008).

Structures can show the parent of a compound that is named as a salt. Where two headings read alike, the source gives them in different places.

In one assay the target is T1, β-lactamase TEM1 (Escherichia coli, UniProt P62593).
T1 construct: The β-lactamases are isolated from bacterial strains resistant to penicillins and to cephalosporins; endogenous in cells; host or cells: E. coli 250HT21 (soluble fraction of French-press lysate, 100 000 G supernatant)
As to the kind of experiment: β-lactamase inhibiting activity (Nitrocefin hydrolysis). The format is biochemical, E. coli 250HT21. How it is done:
(§1) A. Preparation of the β-lactamases Tem˜1 and P99
(§2) The β-lactamases are isolated from bacterial strains resistant to penicillins and to cephalosporins (Tem1 and P99 are produced by E. coli 250HT21 and E. Cloacae 293HT6, respectively).
(§3) The bacteria are cultured in heart-brain broth at 37 g/l (DIFCO), at 37° C. They are harvested at the end of the exponential phase, cooled and centrifuged. The bacterial pellets are taken up in 50 mM sodium phosphate buffer pH 7.0 and again centrifuged. The bacteria are taken up in two volumes of this same buffer and lyzed by means of a French-Press kept at 4° C. After centrifugation for 1 h at 100 000 G, at 4° C., the supernatants containing the soluble fraction of the bacterial extracts are recovered and frozen at −80° C.
(§4) B. Determination of the β-lactamase Activity
(§5) The method uses, as substrate, Nitrocefin (OXOID), a chromogenic cephalosporin, whose product of hydrolysis by Beta-lactamases is red and absorbs at 485 nm. The β-lactamase activity is kinetically determined by measuring the variation in absorbance at 485 nm resulting from the hydrolysis of the substrate on a plate spectrophotometer (Spectra Max Plus from Molecular Devices). The experiments are performed at 37° C. The quantity of enzyme was normalized and the measurements are performed at the initial speed.
(§6) C. Determination of the β-lactamase Inhibiting Activity
(§7) Two measurements are carried out, without preincubation and with preincubation of the enzyme and of the inhibitor (5 min), in order to test the irreversibility of the reaction. The products are tested at 6 or 8 concentrations in duplicate. The reaction mixture contains 100 μM of Nitrocefin and 50 mM sodium phosphate buffer pH 7.0. D. Calculations of the IC50 Values
(§8) The rates of hydrolysis are measured with and without inhibitor. The concentration of inhibitor which inhibits by 50% the reaction of hydrolysis of Nitrocefin by the enzyme (IC50) is determined. The data processing is carried out with the aid of the GraFit software (Erathycus Software).

The next assay has as its target T2, β-lactamase P99 (Enterobacter cloacae, UniProt P05364).
T2 construct: The β-lactamases are isolated from bacterial strains resistant to penicillins and to cephalosporins; endogenous in cells; host or cells: E. cloacae 293HT6 (soluble fraction of French-press lysate, 100 000 G supernatant)
The experiment in a line: biochemical. In kind it is biochemical. Here is the method: as §1, §2, §3, §4, §5, §6, §7, §8

Where [1] appears, read: 100 μM Nitrocefin, 50 mM sodium phosphate buffer pH 7.0, 37° C., read-out: IC50 nM/TEM1.
Setting [2] is: 100 μM Nitrocefin, 50 mM sodium phosphate buffer pH 7.0, 37° C.

T2 sequence (P05364 21-381): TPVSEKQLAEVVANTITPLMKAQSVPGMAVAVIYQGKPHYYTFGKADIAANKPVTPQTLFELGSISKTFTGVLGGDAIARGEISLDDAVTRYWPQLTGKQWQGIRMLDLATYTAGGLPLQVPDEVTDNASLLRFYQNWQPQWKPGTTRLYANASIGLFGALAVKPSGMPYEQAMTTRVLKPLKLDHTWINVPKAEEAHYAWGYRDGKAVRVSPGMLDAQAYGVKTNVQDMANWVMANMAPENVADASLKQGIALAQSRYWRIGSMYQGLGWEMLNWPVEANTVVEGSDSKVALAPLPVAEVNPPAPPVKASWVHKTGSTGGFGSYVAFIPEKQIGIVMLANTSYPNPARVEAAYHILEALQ
T1 sequence (P62593 24-286 limits assumed): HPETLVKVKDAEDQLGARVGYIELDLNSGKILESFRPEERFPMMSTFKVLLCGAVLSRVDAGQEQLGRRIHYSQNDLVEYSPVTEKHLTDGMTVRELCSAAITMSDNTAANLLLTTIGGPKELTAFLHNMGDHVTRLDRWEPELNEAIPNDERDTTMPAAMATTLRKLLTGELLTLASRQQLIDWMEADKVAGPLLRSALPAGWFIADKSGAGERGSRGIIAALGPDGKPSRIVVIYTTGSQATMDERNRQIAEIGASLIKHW

With `COC(=O)[C@@H]1c2nn(Cc3ccccc3)cc2[C@H]2CN1C(=O)N2OS(=O)(=O)O` (relative stereo) [Example 1, triethylammonium salt of methyl trans-2,5,6,8-tetrahydro-6-oxo-2-(phenylmethyl)-5-(sulfoxy)-4H-4,7-methanopyrazolo[3,4-e][1,3]diazepine-8-carboxylate], the IC50 at β-lactamase TEM1 (setting [1]) is 3 nM; at β-lactamase P99 (setting [2]) it was 5 nM.
With `COC(=O)[C@@H]1c2nn(CCc3ccccc3)cc2[C@H]2CN1C(=O)N2OS(=O)(=O)O` (relative stereo) [Example 3, Triethylammonium Salt of Methyl trans-2,5,6,8-tetrahydro-6-oxo-2-(2-phenylethyl)-5-(sulfoxy)-4H-4,7-methanopyrazolo[3,4-e][1,3]diazepine-8-carboxylate], the IC50 at β-lactamase TEM1 (setting [1]) amounted to 2 nM; at β-lactamase P99 (setting [2]) it was 11 nM.
As for `CCOC(=O)Cn1cc2c(n1)[C@@H](C(=O)OC)N1C[C@H]2N(OS(=O)(=O)O)C1=O` (relative stereo) [Example 5, Triethylammonium Salt of Ethyl Trans-5,6-dihydro-8-(methoxycarbonyl)-6-oxo-5-(sulfoxy)-4H-4,7-methanopyrazolo[3,4-e][1,3]diazepine-2(8H)-acetate], the IC50 on β-lactamase TEM1 (setting [1]) was determined as 13 nM; on β-lactamase P99 (setting [2]), 17 nM.
In the case of `COC(=O)[C@@H]1c2nn(CC(=O)O)cc2[C@H]2CN1C(=O)N2OS(=O)(=O)O` (relative stereo) [Example 9, Di(triethylammonium) Salt of Trans-5,6-dihydro-8-(methoxycarbonyl)-6-oxo-5-sulfoxy-4H-4,7-methanopyrazolo[3,4-e][1,3]diazepine-2(8H)-acetic acid], the figures for the IC50 at β-lactamase TEM1 (setting [1]) and on β-lactamase P99 (setting [2]) were 60 nM and 50 nM, respectively.
On to `COC(=O)[C@@H]1c2c(cnn2C(N)=O)[C@@H]2CN1C(=O)N2OS(=O)(=O)O` (relative stereo) [Example 10, Pyridinium Salt of Methyl Trans-1-(aminocarbonyl)-4,5,6,8-tetrahydro-6-oxo-5-(sulfoxy)-1H-4,7-methanopyrazolo[3,4-e][1,3]diazepine-8-carboxylate], for which the IC50 at β-lactamase TEM1 amounted to 12 nM; on β-lactamase P99 (setting [2]) it was 18 nM.
`COC(=O)[C@@H]1c2sc(C(N)=O)cc2[C@H]2CN1C(=O)N2OS(=O)(=O)O` (relative stereo) [Example 21, Sodium Salt of Methyl Trans-2-(aminocarbonyl)-4,5,6,8-tetrahydro-6-oxo-5-(sulfoxy)-4,7-methano-7H-thieno[2,3-e][1,3]diazepine-8-carboxylate]: the IC50 stood at 7 nM on β-lactamase TEM1 (setting [1]) and 69 nM against β-lactamase P99 (setting [2]).
In the same order, the values of `Cc1ccccc1-c1cc2c(s1)[C@@H](C(N)=O)N1C[C@H]2N(OS(=O)(=O)O)C1=O` (relative stereo) [Example 24, Sodium Salt of Trans-4,5,6,8-tetrahydro-2-(2-methylphenyl)-6-oxo-5-(sulfoxy)-4,7-methano-7H-thieno[2,3-e][1,3]diazepine-8-carboxamide] are 2 nM and 10 nM.
In the same order, the values of `NC(=O)[C@@H]1c2sc(-c3ccccc3C(F)(F)F)cc2[C@H]2CN1C(=O)N2OS(=O)(=O)O` (relative stereo) [Example 25, Sodium Salt of Trans-4,5,6,8-tetrahydro-6-oxo-5-(sulfoxy)-2-[2-(trifluoromethyl)phenyl]-4,7-methano-7H-thieno[2,3-e][1,3]diazepine-8-carboxamide] are 2 nM and 6 nM.
As to `CCc1ccccc1-c1cc2c(s1)[C@@H](C(N)=O)N1C[C@H]2N(OS(=O)(=O)O)C1=O` (relative stereo) [Example 26, Sodium Salt of Trans-2-(2-ethylphenyl)-4,5,6,8-tetrahydro-6-oxo-5-(sulfoxy)-4,7-methano-7H-thieno[2,3-e][1,3]diazepine-8-carboxamide], the IC50 on β-lactamase TEM1 (setting [1]) is 1 nM; against β-lactamase P99 (setting [2]) it was 6 nM.
In the same order, the values of `CCOC(=O)[C@H]1c2cccc(OC(=O)Nc3ccccc3)c2[C@@H]2CN1C(=O)N2OS(=O)(=O)O` (relative stereo) [Example 28, Sodium Salt of Ethyl Trans-1,2,3,5-tetrahydro-3-oxo-9-[[(phenylamino)carbonyl]oxy]-2-(sulfoxy)-1,4-methano-4H-2,4-benzodiazepine-5-carboxylate] are 33 nM and 25 nM.
For `COCCOCOc1ccc2c(c1)[C@@H]1CN(C(=O)N1OS(=O)(=O)O)[C@H]2C(=O)NOC` (relative stereo) [Example 33, Sodium Salt of Trans-1,2,3,5-tetrahydro-N-methoxy-8-[(2-methoxyethoxy)methoxy]-3-oxo-2-(sulfoxy)-1,4-methano-4H-2,4-benzodiazepine-5-carboxamide], in that order: 56 nM and 17 nM.
In the same order, the values of `CCNC(=O)Oc1ccc2c(c1)[C@@H]1CN(C(=O)N1OS(=O)(=O)O)[C@H]2C(=O)OCC` (relative stereo) [Example 38, Sodium Salt of Ethyl Trans-8-[[(ethylamino)carbonyl]oxy]-1,2,3,5-tetrahydro-3-oxo-2-(sulfoxy)-1,4-methano-4H-2,4-benzodiazepine-5-carboxylate] are 59 nM and 19 nM.
Consider `CCOC(=O)[C@H]1c2ccc(OS(=O)(=O)C(F)(F)F)cc2[C@@H]2CN1C(=O)N2OS(=O)(=O)O` (relative stereo) [Example 40, Sodium Salt of ethyl trans-1,2,3,5-tetrahydro-3-oxo-2-(sulfoxy)-8-[[(triluoromethyl)sulfonyl]oxy]-1,4-methano-4H-2,4-benzodiazepine-5-carboxylate], for which the IC50 on β-lactamase TEM1 (setting [1]) was 11 nM; against β-lactamase P99 (pH 7), 12 nM.
Turning to `NC(=O)[C@H]1c2ccc(OCCOS(=O)(=O)O)cc2[C@@H]2CN1C(=O)N2OS(=O)(=O)O` (relative stereo) [Example 41, Disodium Salt of trans-1,2,3,5-tetrahydro-3-oxo-2-(sulfoxy)-8-[2-(sulfoxy)ethoxy]-1,4-methano-4H-2,4-benzodiazepine-5-carboxamide], the IC50 at β-lactamase TEM1 (setting [1]) was determined as 9 nM; against β-lactamase P99 (setting [2]), 29 nM.
With `CCOC(=O)[C@@H]1c2c(-c3ccc(F)cc3)csc2[C@H]2CN1C(=O)N2OS(=O)(=O)O` (relative stereo) [Example 44, Sodium Salt of ethyl trans-3-(4-fluorophenyl)-4,6,7,8-tetrahydro-6-oxo-7-(sulfoxy)-5,8-methano-5H-thieno[2,3-e][1,3]diazepine-4-carboxylate], the IC50 on β-lactamase TEM1 (setting [1]) was 34 nM; against β-lactamase P99 (pH 7), 2 nM.
For `NC(=O)[C@@H]1c2c(cnn2-c2ccccc2)[C@H]2CN1C(=O)N2OS(=O)(=O)O` (relative stereo) [Example 47, Sodium Salt of trans-4,5,6,8-tetrahydro-6-oxo-1-phenyl-5-(sulfoxy)-1H-4,7-methanopyrazolo[3,4-e][1,3]diazepine-8-carboxamide], the IC50 at β-lactamase TEM1 (setting [1]) amounted to 12 nM; at β-lactamase P99 (setting [2]), 3 nM.
For the compound `COC(=O)C1c2c(cnn2CCc2ccccc2)C2CN1C(=O)N2OS(=O)(=O)O` (stereo not drawn) [Example 2, Triethylammonium Salt of Methyl trans-4,5,6,8-tetrahydro-6-oxo-1-(phenylethyl)-5-(sulfoxy)-1H-4,7-methanopyrazolo[3,4-e][1,3]diazepine-8-carboxylate], the IC50 against β-lactamase TEM1 worked out at 16 nM; at β-lactamase P99 (setting [2]), 20 nM.
In the same order, the values of `CCOC(=O)Cn1ncc2c1C(C(=O)OC)N1CC2N(OS(=O)(=O)O)C1=O` (stereo not drawn) [Example 4, Triethylammonium Salt of Ethyl Trans-4,5,6,8-tetrahydro-8-(methoxycarbonyl)-6-oxo-5-(sulfoxy)-1H-4,7-methanopyrazolo[3,4-e][1,3]diazepine-1-acetate] are 34 nM and 7 nM.
On to `NC(=O)C1c2nn(C(=O)Nc3ccccc3)cc2C2CN1C(=O)N2OS(=O)(=O)O` (stereo not shown) [Example 7, Triethylammonium Salt of 5,6-dihydro-6-oxo-N-2-phenyl-5-(sulfoxy)-4H-4,7-methanopyrazolo[3,4-e][1,3]diazepine-2,8(8H)-dicarboxamide], for which the figures for the IC50 at β-lactamase TEM1 (setting [1]) and against β-lactamase P99 (setting [2]) were 1 nM and 14 nM, respectively.
On to `COC(=O)C1c2nn(C(N)=O)cc2C2CN1C(=O)N2OS(=O)(=O)O` (stereo not drawn) [Example 11, Pyridinium Salt of Methyl Trans-2-(aminocarbonyl)-2,5,6,8-tetrahydro-6-oxo-5-(sulfoxy)-4H-4,7-methanopyrazolo[3,4-e][1,3]diazepine-8-carboxylate], for which the IC50 at β-lactamase TEM1 turned out to be 11 nM; at β-lactamase P99 (setting [2]), 39 nM.
